# Reference: patent US7579359B2, “1-alkoxy 1H-imidazo ring systems and methods” (3M Innovative Properties Company, priority 2004, dated 2009)
row,melting point [°C],Compound
1,210 to 211,"CCCc1nc2c(N)nc3ccccc3c2n1OC [Example 1, 1-Methoxy-2-propyl-1H-imidazo[4,5-c]quinolin-4-amine]"
2,164 to 166,"CCCc1nc2c(N)nc3ccccc3c2n1OCc1ccccc1 [Example 2, 1-Benzyloxy-2-propyl-1H-imidazo[4,5-c]quinolin-4-amine]"
3,198 to 199,"CCCc1nc2c(N)nc3ccccc3c2n1OCC [Example 3, 1-Ethoxy-2-propyl-1H-imidazo[4,5-c]quinolin-4-amine]"
4,216 to 217,"CCc1nc2c(N)nc3ccccc3c2n1OC [Example 4, 2-Ethyl-1-methoxy-1H-imidazo[4,5-c]quinolin-4-amine]"
5,242 to 243,"CCc1nc2c(N)nc3ccccc3c2n1OC(C)C [Example 5, 2-Ethyl-1-isopropoxy-1H-imidazo[4,5-c]quinolin-4-amine]"
6,243,"Cc1nc2c(N)nc3ccccc3c2n1OC(C)C [Example 6, 1-Isopropoxy-2-methyl-1H-imidazo[4,5-c]quinolin-4-amine]"
7,237 to 238,"COn1c(C)nc2c(N)nc3ccccc3c21 [Example 7, 1-Methoxy-2-methyl-1H-imidazo[4,5-c]quinolin-4-amine]"
8,219 to 221,"CCOn1c(C)nc2c(N)nc3ccccc3c21 [Example 9, 1-Ethoxy-2-methyl-1H-imidazo[4,5-c]quinolin-4-amine]"
9,241 to 243,"COn1c(-c2ccccc2)nc2c(N)nc3ccccc3c21 [Example 10, 1-Methoxy-2-phenyl-1H-imidazo[4,5-c]quinolin-4-amine]"
10,188 to 191,"CC(C)On1c(-c2ccccc2)nc2c(N)nc3ccccc3c21 [Example 11, 1-Isopropoxy-2-phenyl-1H-imidazo[4,5-c]quinolin-4-amine]"
11,175 to 178,"CC(C)On1c(C2CCCCC2)nc2c(N)nc3ccccc3c21 [Example 12, 2-Cyclohexyl-1-isopropoxy-1H-imidazo[4,5-c]quinolin-4-amine]"
12,220 to 222,"COn1c(C2CCCCC2)nc2c(N)nc3ccccc3c21 [Example 13, 2-Cyclohexyl-1-methoxy-1H-imidazo[4,5-c]quinolin-4-amine]"
13,187 to 189,"CC(C)On1c(C(C)(C)C)nc2c(N)nc3ccccc3c21 [Example 14, 2-Tert-butyl-1-isopropoxy-1H-imidazo[4,5-c]quinolin-4-amine]"
14,195 to 197,"COn1c(C(C)(C)C)nc2c(N)nc3ccccc3c21 [Example 15, 2-Tert-butyl-1-methoxy-1H-imidazo[4,5-c]quinolin-4-amine]"
15,177 to 179,"Nc1nc2ccccc2c2c1nc(-c1ccccc1)n2OCc1ccccc1 [Example 16, 1-(Benzyloxy)-2-phenyl-1H-imidazo[4,5-c]quinolin-4-amine]"
16,179 to 181,"CCOCc1nc2c(N)nc3ccccc3c2n1OC(C)C [Example 18, 2-(Ethoxymethyl)-1-isopropoxy-1H-imidazo[4,5-c]quinolin-4-amine]"
17,204 to 206,CC(C)On1c(CO)nc2c(N)nc3ccccc3c21 [Example 19]
18,179 to 181,"CCOn1cnc2c(N)nc3ccccc3c21 [Example 20, 1-Ethoxy-1H-imidazo[4,5-c]quinolin-4-amine]"
19,238 to 240,"COn1cnc2c(N)nc3ccccc3c21 [Example 22, 1-Methoxy-1H-imidazo[4,5-c]quinolin-4-amine]"
20,224 to 225,"CC(C)On1cnc2c(N)nc3ccccc3c21 [Example 23, 1-Isopropoxy-1H-imidazo[4,5-c]quinolin-4-amine]"
21,232 to 235,"CCCc1nc2c(N)nc3ccccc3c2n1O [Example 24, 4-Amino-2-propyl-1H-imidazo[4,5-c]quinolin-1-ol]"
22,217 to 219,"COn1c(C(C)C)nc2c(N)nc3ccccc3c21 [Example 25, 2-Isopropyl-1-methoxy-1H-imidazo[4,5-c]quinolin-4-amine]"
23,177 to 179,"CC(C)On1c(C(C)C)nc2c(N)nc3ccccc3c21 [Example 26, 1-Isopropoxy-2-isopropyl-1H-imidazo[4,5-c]quinolin-4-amine]"
24,197 to 199,"CCCCc1nc2c(N)nc3ccccc3c2n1OC [Example 27, 2-Butyl-1-methoxy-1H-imidazo[4,5-c]quinolin-4-amine]"
25,118 to 119,"CCCCc1nc2c(N)nc3ccccc3c2n1OC(C)C [Example 28, 2-Butyl-1-isopropoxy-1H-imidazo[4,5-c]quinolin-4-amine]"
26,215 to 217,"Cc1nc2c(N)nc3ccccc3c2n1OCc1ccccc1[N+](=O)[O-] [Example 29, 2-Methyl-1-[(2-nitrobenzyl)oxy]-1H-imidazo[4,5-c]quinolin-4-amine]"
27,237 to 239,"Cc1nc2c(N)nc3ccccc3c2n1OCCOc1ccccc1 [Example 31, 2-Methyl-1-(2-phenoxyethoxy)-1H-imidazo[4,5-c]quinolin-4-amine]"
28,192 to 194,"CCCc1nc2c(N)nc3ccccc3c2n1OCC(N)=O [Example 33, 2-[(4-Amino-2-propyl-1H-imidazo[4,5-c]quinolin-1-yl)oxy]acetamide]"

row,Compound,melting point [°C]
1,"Cc1nc2c(N)nc3ccccc3c2n1OCC(C)C [Example 8, 1-Isobutoxy-2-methyl-1H-imidazo[4,5-c]quinolin-4-amine]",215 to 216
2,"Cc1nc2c(N)nc3ccccc3c2n1OC(C)(C)C [Example 30, 1-tert-Butoxy-2-methyl-1H-imidazo[4,5-c]quinolin-4-amine]",255 to 257
